Values quoted from earlier work in paper PMC11154582, “Modeling the Blood-Brain Barrier Permeability of Potential Heterocyclic Drugs via Biomimetic IAM Chromatography Technique Combined with QSAR Methodology” (Molecules, 2024).

conditions: IAM column; ref [21]; cited from earlier work

SMILES | log kw, IAM
Cc1ccc(N2CCn3c2nnc(C(=O)NN)c3=O)cc1 [Compound 52] | 0.16

same assay, conditions: IAM column; ref [22]; cited from earlier work

SMILES | log kw, IAM
CC(C)c1nnc2n(c1=O)CCN2c1cccc(Cl)c1 [Compound 32] | 1.49
CCOC(=O)c1nnc2n(c1=O)CCN2c1ccccc1 [Compound 35] | 0.48
Cc1ccc(N2CCn3c2nnc(C(C)C)c3=O)cc1 [Compound 30] | 1.05
O=c1c(C(F)(F)F)nnc2n1CCN2c1ccc(Cl)cc1 [Compound 21] | 1.58
O=c1c(C(F)(F)F)nnc2n1CCN2c1ccc(Cl)c(Cl)c1 [Compound 22] | 2.29
O=c1c(C(F)(F)F)nnc2n1CCN2c1cccc(Cl)c1 [Compound 20] | 1.66
CCOC(=O)c1nnc2n(c1=O)CCN2c1ccc(Cl)cc1 [Compound 38] | 1.12
CCOC(=O)c1nnc2n(c1=O)CCN2c1ccc(C)cc1 [Compound 36] | 1.93
CC(C)c1nnc2n(c1=O)CCN2c1ccccc1 [Compound 29] | 0.76
Cc1ccc(N2CCn3c2nnc(C(F)(F)F)c3=O)cc1 [Compound 17] | 1.25

same assay, conditions: IAM column; ref [23]; cited from earlier work

SMILES | log kw, IAM
Cc1ccc(Cc2nnc3n(c2=O)CCN3c2ccc(C)cc2)cc1 [Compound 107] | 2.51
Cc1ccc(N2CCn3c2nnc(Cc2ccccc2)c3=O)cc1 [Compound 106] | 2.15
CCc1nnc2n(c1=O)CCN2c1ccccc1Cl [Compound 25] | 0.80
CCOc1ccc(N2CCn3c2nnc(Cc2ccc(C)cc2)c3=O)cc1 [Compound 113] | 2.43
CCc1nnc2n(c1=O)CCN2c1ccccc1 [Compound 23] | 0.55
O=c1c(CCc2ccccc2)nnc2n1CCN2c1ccc(Cl)cc1 [Compound 125] | 2.68
O=c1c(-c2ccco2)nnc2n1CCN2c1ccccc1Cl [Compound 67] | 1.27
O=c1c(CCc2ccccc2)nnc2n1CCN2c1ccc(Cl)c(Cl)c1 [Compound 126] | 3.40
CCc1nnc2n(c1=O)CCN2c1ccc(C)cc1 [Compound 24] | 1.00
CCOC(=O)Cc1nnc2n(c1=O)CCN2c1ccc(Cl)cc1 [Compound 49] | 2.11
O=c1c(CCc2ccccc2)nnc2n1CCN2c1ccccc1 [Compound 122] | 2.07
COC(=O)Cc1nnc2n(c1=O)CCN2c1ccccc1 [Compound 40] | 0.81
O=c1c(-c2ccco2)nnc2n1CCN2c1ccccc1 [Compound 61] | 1.29
Cc1ccc(N2CCn3c2nnc(-c2ccco2)c3=O)cc1 [Compound 63] | 1.69
CCOC(=O)Cc1nnc2n(c1=O)CCN2c1ccccc1OC [Compound 47] | 0.91
CCOc1ccc(N2CCn3c2nnc(CC(=O)OC)c3=O)cc1 [Compound 43] | 1.42
O=c1c(-c2ccco2)nnc2n1CCN2c1c(Cl)cccc1Cl [Compound 71] | 1.70
COc1ccc(N2CCn3c2nnc(-c2ccco2)c3=O)cc1 [Compound 66] | 1.19
COc1ccccc1N1CCn2c1nnc(-c1ccccc1)c2=O [Compound 85] | 1.47
Cc1ccc(N2CCn3c2nnc(Cc2cccc(Cl)c2)c3=O)cc1 [Compound 110] | 2.78
Cc1ccc(N2CCn3c2nnc(Cc2cccc(C)c2)c3=O)cc1 [Compound 108] | 2.59
Cc1ccc(N2CCn3c2nnc(Cc2ccc(Cl)cc2)c3=O)cc1 [Compound 111] | 2.81
Cc1ccc(N2CCn3c2nnc(-c2ccccc2)c3=O)cc1 [Compound 84] | 2.22
CCc1nnc2n(c1=O)CCN2c1cccc(Cl)c1 [Compound 26] | 0.84
O=c1c(Cc2ccccc2)nnc2n1CCN2c1ccc(Cl)cc1 [Compound 118] | 2.52

SMILES | log kw, IAM
O=c1c(-c2ccccc2)nnc2n1CCN2c1ccccc1 [Compound 81] | 1.91
COc1ccccc1N1CCn2c1nnc(-c1ccco1)c2=O [Compound 65] | 1.11
Cc1cccc(N2CCn3c2nnc(-c2ccco2)c3=O)c1C [Compound 64] | 1.42
CCc1nnc2n(c1=O)CCN2c1ccc(Cl)cc1 [Compound 27] | 1.24
O=c1c(Cc2ccc(Cl)cc2)nnc2n1CCN2c1ccc(Cl)cc1 [Compound 121] | 3.17
O=c1c(-c2ccco2)nnc2n1CCN2c1ccc(Cl)c(Cl)c1 [Compound 70] | 3.23
O=c1c(Cc2cccc(Cl)c2)nnc2n1CCN2c1ccccc1 [Compound 104] | 2.48
O=c1c(Cc2ccc(Cl)cc2)nnc2n1CCN2c1ccccc1 [Compound 105] | 2.39
Cc1ccccc1N1CCn2c1nnc(-c1ccccc1)c2=O [Compound 82] | 1.53
Cc1ccc(N2CCn3c2nnc(CCc2ccccc2)c3=O)cc1 [Compound 123] | 2.41
CCOC(=O)Cc1nnc2n(c1=O)CCN2c1ccc(C)cc1 [Compound 46] | 1.70
COC(=O)Cc1nnc2n(c1=O)CCN2c1ccc(Cl)cc1 [Compound 44] | 1.82
O=c1c(Cc2ccccc2)nnc2n1CCN2c1ccccc1 [Compound 102] | 3.26
Cc1ccccc1N1CCn2c1nnc(Cc1ccccc1Cl)c2=O [Compound 117] | 2.02
Cc1cccc(N2CCn3c2nnc(-c2ccccc2)c3=O)c1C [Compound 88] | 1.85
O=c1c(Cc2ccccc2Cl)nnc2n1CCN2c1ccc(Cl)cc1 [Compound 119] | 3.22
CCOc1ccc(N2CCn3c2nnc(-c2ccccc2)c3=O)cc1 [Compound 87] | 2.14
O=c1c(-c2ccccc2)nnc2n1CCN2c1cccc(Cl)c1 [Compound 90] | 2.64
CCOc1ccc(N2CCn3c2nnc(Cc2cccc(Cl)c2)c3=O)cc1 [Compound 115] | 2.73
O=c1c(Cc2cccc(Cl)c2)nnc2n1CCN2c1ccc(Cl)cc1 [Compound 120] | 3.15
O=c1c(CCc2ccccc2)nnc2n1CCN2c1ccccc1Cl [Compound 124] | 1.81
Cc1ccccc1N1CCn2c1nnc(-c1ccco1)c2=O [Compound 62] | 0.96
O=c1c(-c2ccco2)nnc2n1CCN2c1ccc(Cl)cc1 [Compound 69] | 2.02
O=c1c(-c2ccco2)nnc2n1CCN2c1cccc(Cl)c1 [Compound 68] | 2.08
